Test results from US10851115B2, “Heterocyclic compounds as RSV inhibitors” (Enanta Pharmaceuticals, Inc., priority 2017, dated 2020).

Tested on: Human RSV-A (“Long” strain)
Assay: RSV in vitro cytoprotection assay in HEp-2 cells (ATPlite readout)
Assay type: cell-based
Conditions: human respiratory syncytial virus, 96 h; HEp-2 cells, 4-day incubation, ATPlite; read-out: Human RSV-A (“Long” strain) EC50
Description: RSV is a single stranded negative sense RNA virus that causes respiratory tract infections which can be dangerous to infants, the elderly, and immunosuppressed individuals. Currently there is no vaccine, and therapeutic options are both costly and of limited effectiveness. These approved treatments are Ribavirin, and Palivizumab/Synagis (a monoclonal antibody). RSV has two genotypes, A and B, which differ primarily in the structure of the virus' surface “G” attachment protein. Our current primary screen focusses on RSV-A and uses an in vitro cytoprotection assay where compounds are added in 2-fold dilutions to cells which are then subjected to fully replicative viral particles. Cell viability is measured several days later along with separate measurements of compound cytotoxicity. This report focuses on the results of our most recent screening of compounds.
HEp-2 cells, (originally derived from tumors grown in irradiated-cortisonised weanling rats that had been injected with epidermoid carcinoma tissue from a person's larynx, but later found to be indistinguishable from HeLa cells by PCR DNA analysis), were used for the culturing of genotype A, “Long” strain RSV. Flasks were inoculated with RSV and viral stocks were collected once cytopathic effect (CPE) was greater than 90%. Viral stocks in 25% sucrose media were snap frozen using liquid nitrogen to increase viral stability. Viral stock titers were quantified by tissue culture infectious dose 50% (TCID50) using 8,000 cells per well and 3-fold viral dilutions across a 96-well plate, cultured for 4 days.
Following extensive parameter testing, the final assay is run as follows: HEp-2 cells are seeded into the inner 60 wells of a 96-well plate at 8,000 cells per well in a volume of 50 μL using Growth Media (DMEM without phenol red, 1% L-Glut, 1% Penn/Strep, 1% nonessential amino acids, 10% FBS). 2-Fold serial dilutions of control and test compounds are added to the wells in duplicate in a total volume of 25 μL. Viral stock is then added to the wells in a volume of 25 μL, bringing the total volume of each well to 100 μL. Each 96-well plate has a control column of 6 wells with cells and virus but no compound (negative control, max CPE), a column with cells but no compound or virus (positive control, minimum CPE), and a column with no cells or virus or compound (background plate/reagent control). The control wells with cells but no virus are given an additional 25 uL of growth media containing an equal quantity of sucrose as those wells receiving the viral stock in order to keep consistent in media and volume conditions. The outer wells of the plate are filled with 125 μL of growth media to act as a thermal and evaporative moat around the test wells. Following a 4-day incubation period, the plates are read using ATPlite (50 uL added per well), which quantifies the amount of ATP (a measure of cell health) present in each well. Assay plates are read using the Envision luminometer. In parallel, cytotoxicity is examined on an additional 96-well plate treated in an identical manner, but substituting the 25 μL of viral stock for 25 μL of growth media. […] EC50 ranges are as follows: A<0.01 μM; B 0.01-0.05 μM; C>0.05 μM.

Row | Compound | EC50 [nM]
1 | Cc1cnc(N2CCC3(CC2)COC3)c(C(=O)Nc2ccc(C(=O)N3CCc4cc(C(=O)Nc5ccccc5)sc4-c4ncccc43)cc2)c1 [Example 90] | 10 to 50
2 | Cc1cnc(N2CCC3(CC2)COC3)c(C(=O)Nc2ccc(C(=O)N3CCc4cc(C(=O)Nc5c(Cl)cccc5Cl)sc4-c4ncccc43)cc2)c1 [Example 91] | < 10
3 | Cc1cnc(N2CCC3(CC2)COC3)c(C(=O)Nc2ccc(C(=O)N3CCc4cc(C(=O)Nc5c(C)cccc5C#N)sc4-c4ncccc43)cc2)c1 [Example 92] | 10 to 50
4 | Cc1cnc(N2CCC3(CC2)COC3)c(C(=O)Nc2ccc(C(=O)N3CCc4cc(C(=O)Nc5c(F)cccc5Cl)sc4-c4ncccc43)cc2)c1 [Example 93] | < 10
5 | Cc1cnc(N2CCC3(CC2)COC3)c(C(=O)Nc2ccc(C(=O)N3CCc4cc(C(=O)Nc5c(F)cccc5C(F)(F)F)sc4-c4ncccc43)cc2)c1 [Example 94] | 10 to 50
6 | Cc1cnc(N2CCC3(CC2)COC3)c(C(=O)Nc2ccc(C(=O)N3CCc4cc(C(=O)Nc5ncccc5F)sc4-c4ncccc43)cc2)c1 [Example 95] | 10 to 50
7 | Cc1cnc(N2CCC3(CC2)COC3)c(C(=O)Nc2ccc(C(=O)N3CCc4cc(-c5nc6cccc(F)c6[nH]5)sc4-c4ncccc43)cc2)c1 [Example 97] | 10 to 50
8 | Cc1cnc(N2CCC3(CC2)COC3)c(C(=O)Nc2ccc(C(=O)N3CCc4cc(C(=O)Nc5c(C)cccc5F)sc4-c4ncccc43)cc2)c1 [Example 98] | < 10
9 | Cc1cnc(N2CC3(CCOCC3)C2)c(C(=O)Nc2ccc(C(=O)N3CCc4cc(C(=O)Nc5c(F)cccc5F)oc4-c4ncc(F)cc43)cc2)c1 [Example 99] | < 10
10 | Cc1cnc(N2CC3(CCOCC3)C2)c(C(=O)Nc2ccc(C(=O)N3CCc4cc(C(=O)Nc5c(Cl)cccc5Cl)oc4-c4ncc(F)cc43)cc2)c1 [Example 100] | 10 to 50
11 | Cc1cnc(N2CC3(CCOCC3)C2)c(C(=O)Nc2ccc(C(=O)N3CCc4cc(C(=O)Nc5c(F)cccc5Cl)oc4-c4ncc(F)cc43)cc2)c1 [Example 101] | < 10
12 | Cc1cnc(N2CC3(CCOCC3)C2)c(C(=O)Nc2ccc(C(=O)N3CCc4cc(C(=O)Nc5c(F)cccc5C(F)(F)F)oc4-c4ncc(F)cc43)cc2)c1 [Example 102] | 10 to 50
13 | Cc1cnc(N2CC3(CCOCC3)C2)c(C(=O)Nc2ccc(C(=O)N3CCc4cc(-c5nc6ccccc6[nH]5)oc4-c4ncc(F)cc43)cc2)c1 [Example 103] | 10 to 50
14 | O=C(Nc1c(F)cccc1F)c1cc2c(o1)-c1ncc(F)cc1N(C(=O)c1ccc(NC(=O)c3cc4c(nc3N3CC5(CCOCC5)C3)CCC4)cc1)CC2 [Example 104] | < 10
15 | O=C(Nc1c(Cl)cccc1Cl)c1cc2c(o1)-c1ncc(F)cc1N(C(=O)c1ccc(NC(=O)c3cc4c(nc3N3CC5(CCOCC5)C3)CCC4)cc1)CC2 [Example 105] | < 10
16 | O=C(Nc1c(F)cccc1Cl)c1cc2c(o1)-c1ncc(F)cc1N(C(=O)c1ccc(NC(=O)c3cc4c(nc3N3CC5(CCOCC5)C3)CCC4)cc1)CC2 [Example 106] | < 10
17 | O=C(Nc1c(F)cccc1C(F)(F)F)c1cc2c(o1)-c1ncc(F)cc1N(C(=O)c1ccc(NC(=O)c3cc4c(nc3N3CC5(CCOCC5)C3)CCC4)cc1)CC2 [Example 107] | < 10
18 | O=C(Nc1ccc(C(=O)N2CCc3cc(-c4nc5ccccc5[nH]4)oc3-c3ncc(F)cc32)cc1)c1cc2c(nc1N1CC3(CCOCC3)C1)CCC2 [Example 108] | 10 to 50
19 | Cc1cnc(N2CC3(CCOCC3)C2)c(C(=O)Nc2ccc(C(=O)N3CCc4cc(-c5ccc[nH]c5=O)oc4-c4ncc(F)cc43)cc2)c1 [Example 109] | 10 to 50
20 | Cc1cnc(N2CC3(CCOCC3)C2)c(C(=O)Nc2ccc(C(=O)N3CCc4cc(-c5ccc[nH]c5=O)sc4-c4ncc(F)cc43)cc2)c1 [Example 110] | 10 to 50
21 | Cc1cnc(N2CC3(CCOCC3)C2)c(C(=O)Nc2ccc(C(=O)N3CCc4cc(C(=O)Nc5c(F)cccc5F)oc4-c4cccnc43)cc2)c1 [Example 111] | 10 to 50
22 | Cc1cnc(N2CC3(CCOCC3)C2)c(C(=O)Nc2ccc(C(=O)N3CCc4cc(C(=O)Nc5c(C)cccc5F)oc4-c4cccnc43)cc2)c1 [Example 112] | > 50
23 | Cc1cnc(N2CC3(CCOCC3)C2)c(C(=O)Nc2ccc(C(=O)N3CCc4cc(C(=O)Nc5c(F)cccc5Cl)oc4-c4cccnc43)cc2)c1 [Example 113] | > 50

Row | Compound | EC50 [nM]
24 | Cc1cnc(N2CC3(CCOCC3)C2)c(C(=O)Nc2ccc(C(=O)N3CCc4cc(-c5nc6ccccc6[nH]5)oc4-c4cccnc43)cc2)c1 [Example 114] | > 50
25 | Cc1cnc(N2CC3(CCOCC3)C2)c(C(=O)Nc2ccc(C(=O)N3CCc4cc(C(=O)Nc5c(F)cccc5F)oc4-c4ncccc43)cc2)c1 [Example 115] | 10 to 50
26 | Cc1cnc(N2CC3(CCOCC3)C2)c(C(=O)Nc2ccc(C(=O)N3CCc4cc(C(=O)Nc5c(F)cccc5Cl)oc4-c4ncccc43)cc2)c1 [Example 117] | 10 to 50
27 | Cc1cnc(N2CC3(CCOCC3)C2)c(C(=O)Nc2ccc(C(=O)N3CCc4cc(-c5nc6ccccc6[nH]5)oc4-c4ncccc43)cc2)c1 [Example 118] | 10 to 50
28 | O=C(Nc1c(F)cccc1F)c1cc2c(o1)-c1ncccc1N(C(=O)c1ccc(NC(=O)c3cc4c(nc3N3CC5(CCOCC5)C3)CCC4)cc1)CC2 [Example 119] | < 10
29 | O=C(Nc1ccc(C(=O)N2CCc3cc(-c4nc5ccccc5[nH]4)oc3-c3ncccc32)cc1)c1cc2c(nc1N1CC3(CCOCC3)C1)CCC2 [Example 120] | 10 to 50
30 | Cc1cnc(N2CC3(CCOCC3)C2)c(C(=O)Nc2ccc(C(=O)N3CCc4cc(C(=O)Nc5c(F)cccc5F)oc4-c4ccncc43)cc2)c1 [Example 121] | 10 to 50
31 | Cc1cnc(N2CC3(CCOCC3)C2)c(C(=O)Nc2ccc(C(=O)N3CCc4cc(C(=O)Nc5c(F)cc(F)cc5F)oc4-c4ccncc43)cc2)c1 [Example 122] | > 50
32 | Cc1cnc(N2CC3(CCOCC3)C2)c(C(=O)Nc2ccc(C(=O)N3CCc4cc(C(=O)Nc5c(C)cccc5F)oc4-c4ccncc43)cc2)c1 [Example 123] | > 50
33 | Cc1cnc(N2CC3(CCOCC3)C2)c(C(=O)Nc2ccc(C(=O)N3CCc4cc(-c5nc6ccccc6[nH]5)oc4-c4ccncc43)cc2)c1 [Example 124] | > 50
34 | Cc1cnc(N2CC3(CCOCC3)C2)c(C(=O)Nc2ccc(C(=O)N3CCc4cc(C(=O)Nc5c(F)cccc5Cl)oc4-c4ccncc43)cc2)c1 [Example 125] | 10 to 50
35 | Cc1cnc(N2CC3(CCOCC3)C2)c(C(=O)Nc2ccc(C(=O)N3CCc4cc(C(=O)Nc5c(F)cccc5C(F)(F)F)oc4-c4ccncc43)cc2)c1 [Example 126] | > 50
36 | Cc1cnc(N2CC3(CCOCC3)C2)c(C(=O)Nc2ccc(C(=O)N3CCc4cc(-c5nc6cccc(F)c6[nH]5)oc4-c4ccncc43)cc2)c1 [Example 127] | > 50
37 | Cc1cnc(N2CC3(CCOCC3)C2)c(C(=O)Nc2ccc(C(=O)N3CCc4cc(C(=O)Nc5c(F)cccc5F)sc4-c4cc(C)sc43)cc2)c1 [Example 128] | 10 to 50
38 | Cc1cnc(N2CC3(CCOCC3)C2)c(C(=O)Nc2ccc(C(=O)N3CCc4cc(C(=O)Nc5c(F)cc(F)cc5F)sc4-c4cc(C)sc43)cc2)c1 [Example 129] | > 50
39 | Cc1cnc(N2CC3(CCOCC3)C2)c(C(=O)Nc2ccc(C(=O)N3CCc4cc(C(=O)Nc5c(Cl)cccc5Cl)sc4-c4cc(C)sc43)cc2)c1 [Example 130] | > 50
40 | Cc1cnc(N2CC3(CCOCC3)C2)c(C(=O)Nc2ccc(C(=O)N3CCc4cc(-c5nc6cccc(F)c6[nH]5)sc4-c4cc(C)sc43)cc2)c1 [Example 131] | 10 to 50
41 | Cc1cnc(N2CC3(CCOCC3)C2)c(C(=O)Nc2ccc(C(=O)N3CCc4cc(-c5nc6ccccc6[nH]5)sc4-c4cc(C)sc43)cc2)c1 [Example 132] | 10 to 50
42 | Cc1cnc(N2CC3(CCOCC3)C2)c(C(=O)Nc2ccc(C(=O)N3CCc4cc(C(=O)Nc5c(F)cccc5F)sc4-c4ncc(C)cc43)cc2)c1 [Example 133] | < 10
43 | Cc1cnc(N2CC3(CCOCC3)C2)c(C(=O)Nc2ccc(C(=O)N3CCc4cc(C(=O)Nc5c(C)cccc5F)sc4-c4ncc(C)cc43)cc2)c1 [Example 134] | < 10
44 | Cc1cnc(N2CC3(CCOCC3)C2)c(C(=O)Nc2ccc(C(=O)N3CCc4cc(C(=O)Nc5c(F)cccc5Cl)sc4-c4ncc(C)cc43)cc2)c1 [Example 136] | < 10
45 | Cc1cnc(N2CC3(CCOCC3)C2)c(C(=O)Nc2ccc(C(=O)N3CCc4cc(-c5nc6ccccc6[nH]5)sc4-c4ncc(C)cc43)cc2)c1 [Example 137] | < 10
